Assay results: patent publication US20060178342A1, “Hyaluronan as a cytotoxic agent, drug pre-sensitizer and chemo-sensitizer in the treatment of disease” (priority 2001, published 2006)
“Also recorded” adds a separate entry of the source.

Experiments:
[1] = tested on: MDA-MB-468 human breast carcinoma xenografts; assay: 6-week efficacy study of HA ± 5-FU in nude mouse xenografts; format: in vivo
Procedure: From the results in Example 2 the carcinoma cell line MDA-MB-468 was selected as the cancer cell inoculant for the generation of any nude mouse human tumour xenografts. Cells were routinely grown and subcultured as a previously described in Example 2. For injection into mice, cells were grown to 100% confluency, trypsinised in 0.025% trypsin/0.01% EDTA solution, washed twice by centrifugation in a Beckman TJ-6 bench centrifuge at 400 gav for 10 min, counted using a Model-ZM Coulter counter and resuspended in serum-free Leibovitz L-15 medium at 1×10^8 cells/ml. […]
Individual injections of 5-FU were prepared according to individual mouse masses, with the aim of delivering 30 mg/kg 5-FU in 50 μl (equivalent to human therapeutic dose of 10.5 mg/kg for a mean body weight of 60 kg; Inaba et al, 1988). […] With this quantity of HA injected into the body, saturation kinetics would be observed for the period of the experimentation (Fraser et al, 1983). […]
Animals were weighed and tumour volumes measured on the day of treatment application for long term study. In the 6-week study animals were weighed and tumour volumes measured on a daily basis. […]
Tumour volume was monitored on a daily or weekly basis by caliper measurements and tumour volume calculated as previously described.

[2] = tested on: HT-29; assay: Effect of HA on cell proliferation; format: cell-based, human; conditions: 3 days constant exposure, 100 nM
Procedure: (§1) The effect of HA on the proliferation of human breast and colon cancer cell lines was determined according to the methods set forth in the Table 11.

[3] = tested on: SK-CO-1; assay: Effect of HA on cell proliferation; format: cell-based, human; conditions: 3 days constant exposure, 100 nM
Procedure: as §1

[4] = tested on: MDA MB 231; assay: Effect of HA on cell proliferation; format: cell-based, human
Procedure: as §1

[5] = tested on: LIM 2099; assay: Effect of HA on cell proliferation; format: cell-based, human; conditions: 3 days constant exposure, 100 nM
Procedure: as §1

[6] = tested on: ZR-75-1; assay: Effect of HA on cell proliferation; format: cell-based, human; conditions: 3 days constant exposure
Procedure: as §1

[7] = tested on: HCT-116; assay: Effect of HA on cell proliferation; format: cell-based, human; conditions: 3 days constant exposure, 100 nM
Procedure: as §1

[8] = tested on: SW1222; assay: Effect of HA on cell proliferation; format: cell-based, human; conditions: 3 days constant exposure, 100 nM
Procedure: as §1

[9] = tested on: MDA MB 435; assay: Effect of HA on cell proliferation; format: cell-based, human
Procedure: as §1

[10] = tested on: SW620; assay: Effect of HA on cell proliferation; format: cell-based, human; conditions: 3 days constant exposure, 100 nM
Procedure: as §1

[11] = tested on: LIM 1215; assay: Effect of HA on cell proliferation; format: cell-based, human; conditions: 3 days constant exposure, 100 nM
Procedure: as §1

[12] = tested on: MDA MB 468; assay: Effect of HA on cell proliferation; format: cell-based, human
Procedure: as §1

[13] = 30 min HA followed by growth for 3 days, 100 nM
[14] = 3 days constant exposure, 100 nM
[15] = 3 days constant exposure, 500 nM
[16] = 3 days constant exposure, 10 μM
[17] = 24 H HA followed by growth for 3 days, 100 nM

hyaluronan [HA] was tested, and the “non-lymphoid metastasis (new tumours near primary tumour)” value ([1]; 6-week study) was “significant reduction in non-lymphoid metastasis”, the “tumour mass at the end of the 6 week study, compared with other groups” value ([1]; iv 12.5 mg/kg HA and/or 30 mg/kg 5-FU, 6 x 7 day cycles) was “significantly decreased the primary tumour mass; also recorded: reducing the primary tumour mass in comparison to the saline control” and the “Effect of HA on cell proliferation (mean ± standard deviation)” value (“Effect of HA … (mean ± standard deviation)” for short) [2] was 82 ± 14 (n = 8) % of untreated control. The “Effect of HA … (mean ± standard deviation)” value [3] was 95 ± 3 (n = 8) % of untreated control, the “Effect of HA … (mean ± standard deviation)” value [4, 13] was 86 ± 3 (n = 8) % of untreated control and the “Effect of HA … (mean ± standard deviation)” value [4, 14] was 106 ± 11 (n = 20) % of untreated control. For the same substance, the “Effect of HA … (mean ± standard deviation)” value [4, 15] was 100 ± 1 (n = 8) % of untreated control, the “Effect of HA … (mean ± standard deviation)” value [4, 16] was 101 ± 5 (n = 8) % of untreated control and the “Effect of HA … (mean ± standard deviation)” value [5] was 105 ± 2 (n = 16) % of untreated control. The “Effect of HA … (mean ± standard deviation)” value ([6]; 100 nM) was 103 ± 4 (n = 20) % of untreated control, the “Effect of HA … (mean ± standard deviation)” value ([6]; 500 nM) was 102 ± 1 (n = 8) % of untreated control and the “Effect of HA … (mean ± standard deviation)” value ([6]; 10 μM) was 100 ± 3 (n = 8) % of untreated control. For the same substance, the “Effect of HA … (mean ± standard deviation)” value [7] was 92 ± 0 (n = 8) % of untreated control, the “Effect of HA … (mean ± standard deviation)” value [8] was 99 ± 1 (n = 8) % of untreated control and the “Effect of HA … (mean ± standard deviation)” value [9, 17] was 111 ± 6 (n = 8) % of untreated control. For the same substance, the “Effect of HA … (mean ± standard deviation)” value [9, 13] was 86 ± 6 (n = 12) % of untreated control, the “Effect of HA … (mean ± standard deviation)” value [9, 14] was 85 ± 17 (n = 16) % of untreated control and the “Effect of HA … (mean ± standard deviation)” value [9, 15] was 55 ± 6 (n = 8) % of untreated control. The “Effect of HA … (mean ± standard deviation)” value [9, 16] was 101 ± 1(n = 8) % of untreated control, the “Effect of HA … (mean ± standard deviation)” value [10] was 97 ± 1 (n = 8) % of untreated control and the “Effect of HA … (mean ± standard deviation)” value [11] was 89 ± 5 (n = 8) % of untreated control. The “Effect of HA … (mean ± standard deviation)” value [12, 17] was 84 ± 1 (n = 4) % of untreated control, the “Effect of HA … (mean ± standard deviation)” value [12, 13] was 97 ± 15 (n = 12) % of untreated control and the “Effect of HA … (mean ± standard deviation)” value [12, 14] was 99 ± 6 (n = 20) % of untreated control. For the same substance, the “Effect of HA … (mean ± standard deviation)” value [12, 15] was 95 ± 3 (n = 8) % of untreated control and the “Effect of HA … (mean ± standard deviation)” value [12, 16] was 99 ± 6 (n = 20) % of untreated control.
